Measured values published in article PMC9156754, “Functional and phylogenetic analysis of TetX variants to design a new classification system” (Communications Biology, 2022).
Converted amounts (≈) assume the structure as drawn. Like-named read-outs stand apart in the source and are kept apart here.

Assays:
[1] = tested on: T1, Escherichia coli Vector control; assay: microbe, parasite or virus in culture; parameters: broth microdilution MIC, growth of E. coli, CLSI guidelines; details: empty pBAD18 vector
T1 construct: BW25113 empty pBAD18-Kan vector
Procedure: (§1) The MICs of three antibiotics (tetracycline, minocycline, and tigecycline) for strains were determined using the microbroth dilution method and the results were interpreted according to the CLSI guidelines. For tigecycline, the breakpoint was interpreted according to the FDA criteria (susceptible, ≤2 mg/L; intermediate, 4 mg/L; resistant, ≥8 mg/L)[9]. E. coli strain ATCC 25922 was used as a quality control. The tet(X2) (WP_063856436.1), tet(X3) (WP024160783), and tet(X4) (WP094309310) genes were amplified from dairy cows’ clinical isolates[25] by PCR with primers listed in Supplementary Table 1. Then these genes were constructed into pBAD-18Kan vector and IPTG-inducible pET28b vector, respectively. The recombinant plasmids pBAD-18-tet(X2), pBAD-18-tet(X3) and pBAD-18-tet(X4) were transformed into E. coli BW25113 and followed by antimicrobial susceptibility tests. In addition, the recombinant plasmids pET28-6×His-tet(X2), pET28-6×His-tet(X3) and pET28-6×His-tet(X4) were transformed into E. coli strain BL21(DE3) for protein purification. Point mutations were introduced into the tet(X2) gene, tet(X3) gene and tet(X4) by using the QuickChange (Stratagene) commercial kit, following the manufacturer’s instructions, and confirmed by sequencing. Primers used in mutagenesis are also listed in Supplementary Table 1.

E. coli 25922 = tested on: T2, E. coli 25922; assay: microbe, parasite or virus in culture; parameters: broth microdilution MIC, growth of E. coli, CLSI guidelines; details: Escherichia coli
T2 construct: ATCC 25922
Procedure: as §1

[2] = tested on: CN(C)c1cc(NC(=O)CNC(C)(C)C)c(O)c2c1C[C@H]1C[C@H]3[C@H](N(C)C)C(=O)C(C(N)=O)=C(O)[C@@]3(O)C(=O)C1=C2O; assay: purified protein; type: biochemical, Escherichia coli; details: 0.1 M TAPS pH 8.5, 5 mM MgCl2, 500 µM NADPH, ambient temperature

For `CN(C)c1ccc(O)c2c1C[C@H]1C[C@H]3[C@H](N(C)C)C(O)=C(C(N)=O)C(=O)[C@@]3(O)C(O)=C1C2=O` [minocycline], the MIC ([1]; read-out: MIC (mg/L) / MIN) was 1 mg/L (≈ 2.19 µM) and the MIC (E. coli 25922; read-out: MIC (mg/L) / MIN) was 0.25 mg/L (≈ 0.546 µM).
Work on `CN(C)[C@@H]1C(O)=C(C(N)=O)C(=O)[C@@]2(O)C(O)=C3C(=O)c4c(O)cccc4[C@@](C)(O)[C@H]3C[C@@H]12` [tetracycline] yielded an MIC ([1]; read-out: MIC (mg/L) / TET^a) of 2 mg/L (≈ 4.5 µM) and an MIC (E. coli 25922; read-out: MIC (mg/L) / TET^a) of 1 mg/L (≈ 2.25 µM).
`CN(C)c1cc(NC(=O)CNC(C)(C)C)c(O)c2c1C[C@H]1C[C@H]3[C@H](N(C)C)C(=O)C(C(N)=O)=C(O)[C@@]3(O)C(=O)C1=C2O` [tigecycline] gave an MIC ([1]; read-out: MIC (mg/L) / TGC) of 0.5 mg/L (≈ 0.854 µM) and an MIC (E. coli 25922; read-out: MIC (mg/L) / TGC) of 0.25 mg/L (≈ 0.427 µM).
Tet(X4) (Escherichia coli) gave a Km [2] of 1.73 ± 0.09 µM, a kcat [2] of 2 ± 0.02 s⁻¹ and a kcat/Km [2] of 1.16e+06 M⁻¹ s⁻¹.
